# Assay results: patent US10770169B2, “Method of providing a treatment to a subject based on a dynamic pathway map” (THE REGENTS OF THE UNIVERSITY OF CALIFORNIA, priority 2010, dated 2020)
# Where two headings read alike, the source gives them in different places.
# Tested on: panel of 55 breast cancer cell lines
# Assay: Cell growth inhibition assay (Cell Titer Glo, 72 h, 9 doses; GI50, TGI, LC50)
# Type: cell-based, human
structure (smiles),measurement,setting,value
Cc1ccc(C(=O)N(CCCN)[C@@H](c2nc3cc(Cl)ccc3c(=O)n2Cc2ccccc2)C(C)C)cc1 [Ispinesib],GI50,"Homo sapiens, AU565, cell line AU565, censored GI50 values, read-out: GI50 (converted)",22.4 nM
same,GI50,"Homo sapiens, AU565, cell line AU565, read-out: GI50 (converted)",22.4 nM
same,GI50,"Homo sapiens, BT-20, cell line BT20, censored GI50 values, read-out: GI50 (converted)",17 nM
same,GI50,"Homo sapiens, BT-20, cell line BT20, read-out: GI50 (converted)",17 nM
same,GI50,"Homo sapiens, BT-474, cell line BT474, censored GI50 values, read-out: GI50 (converted)",51.3 nM
same,GI50,"Homo sapiens, BT-474, cell line BT474, read-out: GI50 (converted)",51.3 nM
same,GI50,"Homo sapiens, BT-483, cell line BT483, censored GI50 values, read-out: GI50 (converted)",0.049 nM
same,GI50,"Homo sapiens, BT-483, cell line BT483, read-out: GI50 (converted)",0.049 nM
same,GI50,"Homo sapiens, BT-549, cell line BT549, censored GI50 values, read-out: GI50 (converted)",46.8 nM
same,GI50,"Homo sapiens, BT-549, cell line BT549, read-out: GI50 (converted)",46.8 nM
same,GI50,"Homo sapiens, CAMA-1, cell line CAMA1, censored GI50 values, read-out: GI50 (converted)",31.6 nM
same,GI50,"Homo sapiens, CAMA-1, cell line CAMA1, read-out: GI50 (converted)",31.6 nM
same,GI50,"Homo sapiens, HCC38, cell line HCC38, censored GI50 values, read-out: GI50 (converted)",46.8 nM
same,GI50,"Homo sapiens, HCC38, cell line HCC38, read-out: GI50 (converted)",46.8 nM
same,GI50,"Homo sapiens, HCC70, cell line HCC70, censored GI50 values, read-out: GI50 (converted)",45.7 nM
same,GI50,"Homo sapiens, HCC70, cell line HCC70, read-out: GI50 (converted)",45.7 nM
same,GI50,"Homo sapiens, HCC202, cell line HCC202, censored GI50 values, read-out: GI50 (converted)",7.59 nM
same,GI50,"Homo sapiens, HCC202, cell line HCC202, read-out: GI50 (converted)",7.59 nM
same,GI50,"Homo sapiens, HCC1143, cell line HCC1143, censored GI50 values, read-out: GI50 (converted)",51.3 nM
same,GI50,"Homo sapiens, HCC1143, cell line HCC1143, read-out: GI50 (converted)",51.3 nM
same,GI50,"Homo sapiens, HCC1187, cell line HCC1187, censored GI50 values, read-out: GI50 (converted)",26.9 nM
same,GI50,"Homo sapiens, HCC1187, cell line HCC1187, read-out: GI50 (converted)",26.9 nM
same,GI50,"Homo sapiens, HCC1395, cell line HCC1395, censored GI50 values, read-out: GI50 (converted)",27.5 nM
same,GI50,"Homo sapiens, HCC1395, cell line HCC1395, read-out: GI50 (converted)",27.5 nM
same,GI50,"Homo sapiens, HCC1419, cell line HCC1419, censored GI50 values, read-out: GI50 (converted)",6760 nM
same,GI50,"Homo sapiens, HCC1419, cell line HCC1419, read-out: GI50 (converted)",6760 nM
same,GI50,"Homo sapiens, HCC1428, cell line HCC1428, censored GI50 values, read-out: GI50 (converted)",4470 nM
same,GI50,"Homo sapiens, HCC1428, cell line HCC1428, read-out: GI50 (converted)",4470 nM
same,GI50,"Homo sapiens, HCC1500, cell line HCC1500, censored GI50 values, read-out: GI50 (converted)",33.9 nM
same,GI50,"Homo sapiens, HCC1500, cell line HCC1500, read-out: GI50 (converted)",33.9 nM
same,GI50,"Homo sapiens, HCC1806, cell line HCC1806, censored GI50 values, read-out: GI50 (converted)",28.8 nM
same,GI50,"Homo sapiens, HCC1806, cell line HCC1806, read-out: GI50 (converted)",28.8 nM
same,GI50,"Homo sapiens, HCC1937, cell line HCC1937, censored GI50 values, read-out: GI50 (converted)",282 nM
same,GI50,"Homo sapiens, HCC1937, cell line HCC1937, read-out: GI50 (converted)",282 nM
same,GI50,"Homo sapiens, HCC1954, cell line HCC1954, censored GI50 values, read-out: GI50 (converted)",30.9 nM
same,GI50,"Homo sapiens, HCC1954, cell line HCC1954, read-out: GI50 (converted)",30.9 nM
same,GI50,"Homo sapiens, MCF7, cell line MCF7, censored GI50 values, read-out: GI50 (converted)",38 nM
same,GI50,"Homo sapiens, MCF7, cell line MCF7, read-out: GI50 (converted)",38 nM
same,GI50,"Homo sapiens, MDA-MB-134-VI, cell line MDAMB134VI, censored GI50 values, read-out: GI50 (converted)",43.7 nM
same,GI50,"Homo sapiens, MDA-MB-157, cell line MDAMB157, censored GI50 values, read-out: GI50 (converted)",31.6 nM
same,GI50,"Homo sapiens, MDA-MB-175-VII, cell line MDAMB175VII, censored GI50 values, read-out: GI50 (converted)",1700 nM
same,GI50,"Homo sapiens, MDA-MB-231, cell line MDAMB231, censored GI50 values, read-out: GI50 (converted)",31.6 nM
same,GI50,"Homo sapiens, MDA-MB-361, cell line MDAMB361, censored GI50 values, read-out: GI50 (converted)",33.9 nM
same,GI50,"Homo sapiens, MDA-MB-415, cell line MDAMB415, censored GI50 values, read-out: GI50 (converted)",75.9 nM
same,GI50,"Homo sapiens, MDA-MB-436, cell line MDAMB436, censored GI50 values, read-out: GI50 (converted)",38.9 nM
same,GI50,"Homo sapiens, MDA-MB-453, cell line MDAMB453, censored GI50 values, read-out: GI50 (converted)",42.7 nM
same,GI50,"Homo sapiens, MDA-MB-468, cell line MDAMB468, censored GI50 values, read-out: GI50 (converted)",19.1 nM
same,GI50,"Homo sapiens, SK-BR-3, cell line SKBR3, censored GI50 values, read-out: GI50 (converted)",33.9 nM
same,GI50,"Homo sapiens, SUM52PE, cell line SUM52PE, censored GI50 values, read-out: GI50 (converted)",28.8 nM
same,GI50,"Homo sapiens, SUM149PT, cell line SUM149PT, censored GI50 values, read-out: GI50 (converted)",33.1 nM
same,GI50,"Homo sapiens, SUM185PE, cell line SUM185PE, censored GI50 values, read-out: GI50 (converted)",110 nM
same,GI50,"Homo sapiens, SUM225CWN, cell line SUM225CWN, censored GI50 values, read-out: GI50 (converted)",105 nM
same,GI50,"Homo sapiens, SUM1315MO2, cell line SUM1315MO2, censored GI50 values, read-out: GI50 (converted)",40.7 nM
same,GI50,"Homo sapiens, SUM-159-PT, cell line SUM159PT, censored GI50 values, read-out: GI50 (converted)",47.9 nM
same,GI50,"Homo sapiens, T47D, cell line T47D, censored GI50 values, read-out: GI50 (converted)",83.2 nM
same,GI50,"Homo sapiens, UACC-893, cell line UACC893, censored GI50 values, read-out: GI50 (converted)",10.5 nM
same,GI50,"Homo sapiens, ZR-75-1, cell line ZR751, censored GI50 values, read-out: GI50 (converted)",89.1 nM
same,GI50,"Homo sapiens, ZR-75B, cell line ZR75B, censored GI50 values, read-out: GI50 (converted)",132 nM
same,GI50,"Homo sapiens, cell line 600MPE, censored GI50 values, read-out: GI50 (converted)",20.9 nM
same,GI50,"Homo sapiens, cell line 600MPE, read-out: GI50 (converted)",20.9 nM
same,GI50,"Homo sapiens, cell line HCC2185, censored GI50 values, read-out: GI50 (converted)",29.5 nM
same,GI50,"Homo sapiens, cell line HCC2185, read-out: GI50 (converted)",29.5 nM
same,GI50,"Homo sapiens, cell line HCC3153, censored GI50 values, read-out: GI50 (converted)",28.2 nM
same,GI50,"Homo sapiens, cell line HCC3153, read-out: GI50 (converted)",28.2 nM
same,GI50,"Homo sapiens, cell line LY2, censored GI50 values, read-out: GI50 (converted)",22.9 nM
same,GI50,"Homo sapiens, cell line LY2, read-out: GI50 (converted)",22.9 nM
COc1cc2c(Nc3ccc(NC(=O)c4ccccc4)cc3)ncnc2cc1OCCCN1CCOCC1 [ZM447439],GI50,"cell line AU565, censored GI50 values, value is the negative log10 of mol/L",5.82
same,GI50,"cell line BT20, censored GI50 values, value is the negative log10 of mol/L",5.29
same,GI50,"cell line BT474, censored GI50 values, value is the negative log10 of mol/L",4.20
same,GI50,"cell line BT483, censored GI50 values, value is the negative log10 of mol/L",4.57
same,GI50,"cell line CAMA1, censored GI50 values, value is the negative log10 of mol/L",5.40
same,GI50,"cell line HCC38, censored GI50 values, value is the negative log10 of mol/L",6.24
same,GI50,"cell line HCC70, censored GI50 values, value is the negative log10 of mol/L",6.01
same,GI50,"cell line HCC1143, censored GI50 values, value is the negative log10 of mol/L",4.98
same,GI50,"cell line HCC1187, censored GI50 values, value is the negative log10 of mol/L",6.19
same,GI50,"cell line HCC1419, censored GI50 values, value is the negative log10 of mol/L",5.32
same,GI50,"cell line HCC1428, censored GI50 values, value is the negative log10 of mol/L",5.13
same,GI50,"cell line HCC1500, censored GI50 values, value is the negative log10 of mol/L",5.28
same,GI50,"cell line HCC1937, censored GI50 values, value is the negative log10 of mol/L",5.23
same,GI50,"cell line HCC2185, censored GI50 values, value is the negative log10 of mol/L",5.92
same,GI50,"cell line MDAMB134VI, censored GI50 values, value is the negative log10 of mol/L",4.66
same,GI50,"cell line MDAMB175VII, censored GI50 values, value is the negative log10 of mol/L",4.28
same,GI50,"cell line MDAMB361, censored GI50 values, value is the negative log10 of mol/L",5.53
same,GI50,"cell line MDAMB436, censored GI50 values, value is the negative log10 of mol/L",5.33
same,GI50,"cell line MDAMB468, censored GI50 values, value is the negative log10 of mol/L",6.18
same,GI50,"cell line SKBR3, censored GI50 values, value is the negative log10 of mol/L",4.77
same,GI50,"cell line SUM52PE, censored GI50 values, value is the negative log10 of mol/L",5.40
same,GI50,"cell line SUM185PE, censored GI50 values, value is the negative log10 of mol/L",4.50
same,GI50,"cell line T47D, censored GI50 values, value is the negative log10 of mol/L",4.94
same,GI50,"cell line UACC812, censored GI50 values, value is the negative log10 of mol/L",4.88
same,GI50,"cell line ZR75B, censored GI50 values, value is the negative log10 of mol/L",5.00
same,GI50,"cell line ZR751, censored GI50 values, value is the negative log10 of mol/L",5.46
